Measurements taken from patent US20240366589A1, “NHE3-BINDING COMPOUNDS AND METHODS FOR INHIBITING PHOSPHATE TRANSPORT” (Ardelyx, Inc., priority 2013, published 2024).

Legend:
Rat NHE3 = target: T1, Rat NHE3 (Rattus norvegicus, UniProt P26433); test: Cell-based NHE3 activity under prompt conditions (OK cells, BCECF pH recovery), rat NHE3; conditions: prompt conditions; for IC50: read-out: Prompt Rat NHE3 pIC50 (converted)
T1 construct: expressed in transfected cells; host or cells: Opossum kidney (OK) cells (ATCC), electroporation
T1 sequence (P26433 29-831): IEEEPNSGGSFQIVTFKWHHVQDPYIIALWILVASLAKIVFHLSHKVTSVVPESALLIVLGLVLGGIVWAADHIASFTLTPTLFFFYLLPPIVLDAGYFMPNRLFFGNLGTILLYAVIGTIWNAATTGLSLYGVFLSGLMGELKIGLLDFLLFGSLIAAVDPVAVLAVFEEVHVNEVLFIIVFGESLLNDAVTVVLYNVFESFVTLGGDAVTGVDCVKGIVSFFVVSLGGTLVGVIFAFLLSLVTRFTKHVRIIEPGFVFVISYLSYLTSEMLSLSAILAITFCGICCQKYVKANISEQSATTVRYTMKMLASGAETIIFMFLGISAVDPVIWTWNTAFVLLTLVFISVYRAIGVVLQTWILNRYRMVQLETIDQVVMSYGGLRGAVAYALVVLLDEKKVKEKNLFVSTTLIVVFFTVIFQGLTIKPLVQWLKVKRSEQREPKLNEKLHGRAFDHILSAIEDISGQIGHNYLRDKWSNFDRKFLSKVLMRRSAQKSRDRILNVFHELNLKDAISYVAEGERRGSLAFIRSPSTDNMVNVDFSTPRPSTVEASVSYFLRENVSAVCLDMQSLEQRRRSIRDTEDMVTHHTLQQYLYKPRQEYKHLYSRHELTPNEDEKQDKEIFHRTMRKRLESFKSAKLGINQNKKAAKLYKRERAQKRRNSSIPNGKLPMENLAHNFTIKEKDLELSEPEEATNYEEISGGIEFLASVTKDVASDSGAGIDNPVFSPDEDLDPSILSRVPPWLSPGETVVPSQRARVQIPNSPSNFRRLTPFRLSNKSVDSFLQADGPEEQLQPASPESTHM
How it was run: (§1)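 Fluorometric NHE3 antiport assay in opossum kidney cells carrying rat or human NHE3, using BCECF pH recovery after NH4Cl-prepulse acid loading. pIC50 values derive from initial rates averaged across at least two replicates.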

Human NHE3 = target: T2, Human NHE3 (Homo sapiens, UniProt P48764); test: Cell-based NHE3 activity under prompt conditions (OK cells, BCECF pH recovery), human NHE3; conditions: prompt conditions
T2 construct: expressed in transfected cells; host or cells: Opossum kidney (OK) cells (ATCC), electroporation
T2 sequence (P48764 26-834): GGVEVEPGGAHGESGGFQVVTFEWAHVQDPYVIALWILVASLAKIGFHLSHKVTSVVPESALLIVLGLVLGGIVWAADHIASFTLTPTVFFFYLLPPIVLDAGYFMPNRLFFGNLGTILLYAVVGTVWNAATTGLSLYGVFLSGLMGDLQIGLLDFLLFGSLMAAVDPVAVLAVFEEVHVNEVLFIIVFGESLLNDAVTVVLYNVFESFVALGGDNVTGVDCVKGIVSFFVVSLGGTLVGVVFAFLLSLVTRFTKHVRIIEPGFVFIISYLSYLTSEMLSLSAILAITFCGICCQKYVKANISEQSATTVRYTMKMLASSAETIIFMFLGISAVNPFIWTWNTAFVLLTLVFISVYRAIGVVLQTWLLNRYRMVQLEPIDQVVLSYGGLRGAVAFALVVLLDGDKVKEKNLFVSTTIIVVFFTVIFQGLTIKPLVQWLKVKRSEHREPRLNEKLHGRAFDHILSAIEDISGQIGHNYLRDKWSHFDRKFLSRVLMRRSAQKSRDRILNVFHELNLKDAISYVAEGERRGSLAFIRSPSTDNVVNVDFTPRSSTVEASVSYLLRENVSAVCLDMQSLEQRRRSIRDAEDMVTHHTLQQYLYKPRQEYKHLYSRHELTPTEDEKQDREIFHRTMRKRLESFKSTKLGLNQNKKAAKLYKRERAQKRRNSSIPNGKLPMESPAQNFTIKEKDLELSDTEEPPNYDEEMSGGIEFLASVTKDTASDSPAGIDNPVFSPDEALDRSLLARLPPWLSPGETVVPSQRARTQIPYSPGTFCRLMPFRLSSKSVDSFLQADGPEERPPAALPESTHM
How it was run: as §1

[1] = test system: absorption of sodium from the intestinal lumen; test: Inhibition of intestinal sodium absorption: urinary sodium (uNa) 16 h after single oral dose in rats; type: in vivo, rat; conditions: oral gavage, 16 h post-dose
How it was run: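 Urinary sodium mass over the 16 h after one oral gavage dose, measured by cation-exchange ion chromatography, reported as percent of water-vehicle group; ANOVA plus Dunnett's post hoc test. Groups of six 8-week-old Sprague-Dawley rats, housed individually in metabolic cages post-dose, fed and watered freely.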

[2] = test system: absorption of sodium from the intestinal lumen; test: Fecal form score (FFS) 16 h after oral dose in rats; type: in vivo, rat; conditions: oral gavage, 16 h post-dose, scale 1-5
How it was run: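 Fecal form was scored at 16 h post-dose on a 1–5 wetness scale (normal pellet to liquid stream), with two independent observations averaged across six rats per group. Animals were 8-week-old Sprague-Dawley rats given test compound or water orally in the late afternoon and kept in metabolic cages.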

[3] = test system: phosphorus and calcium levels in the urine of rats; test: Urinary excretion of phosphate and calcium in rats (16 h overnight urine); type: in vivo, rat; conditions: rats, oral gavage, 16 h post-dose

| Structure (SMILES) | Prompt Rat NHE3 pIC50 (Rat NHE3) | Prompt Human NHE3 pIC50 (Human NHE3) | IC50 (Rat NHE3) [nM] | IC50 (Human NHE3; read-out: Prompt Human NHE3 pIC50 (converted)) [nM] | Urine Na % of control ([1]; dose 10 mg/kg) [%] | Fecal Form Score average ([2]; dose 10 mg/kg) | Urine P % of control ([3]; dose 10 mg/kg) [%] | Urine Na % of control ([1]; dose 3 mg/kg) [%] | Fecal Form Score average ([2]; dose 3 mg/kg) | Urine P % of control ([3]; dose 3 mg/kg) [%] | Urine Na % of control ([1]; dose 1 mg/kg) [%] | Fecal Form Score average ([2]; dose 1 mg/kg) | Urine P % of control ([3]; dose 1 mg/kg) [%] |
| --- | --- | --- | --- | --- | --- | --- | --- | --- | --- | --- | --- | --- | --- |
| CN(CC(=O)NCCOCCOCCOCCNS(=O)(=O)c1ccc(OC2c3ccccc3CC2N2CCCCC2)cc1)CC(=O)NCCOCCOCCOCCNS(=O)(=O)c1ccc(OC2c3ccccc3CC2N2CCCCC2)cc1 (stereo not drawn) [compound 52] | 7.35 | 7.40 |  |  | 68 | 1 | 71 |  |  |  |  |  |  |
| CN(C)[C@H]1Cc2c(F)cc(Cl)cc2[C@@H]1Oc1ccc(S(=O)(=O)NCCOCCOCCNC(=O)NCCCCNC(=O)NCCOCCOCCNS(=O)(=O)c2ccc(O[C@H]3c4cc(Cl)cc(F)c4C[C@@H]3N(C)C)cc2)cc1 [compound 166] | <5.00 | 8.40 |  |  | 111 | 1 | 43 |  |  |  |  |  |  |
| CN(CC(=O)NCCOCCOCCNC(=O)NCCOCCOCCN1CCN(c2cccc(-c3nc(NC(=N)N)nc4ccc(Cl)cc34)c2)CC1)CC(=O)NCCOCCOCCNC(=O)NCCOCCOCCN1CCN(c2cccc(-c3nc(NC(=N)N)nc4ccc(Cl)cc34)c2)CC1 [compound 33] | 7.40 | 7.90 |  |  | 98 | 1 | 117 |  |  |  |  |  |  |
| C/C(=C\c1cc(F)c(Oc2ccc(S(=O)(=O)NCCOCCOCCOCCNCc3ccc(CNCCOCCOCCOCCNS(=O)(=O)c4ccc(Oc5c(F)cc(/C=C(\C)C(=O)N=C(N)N)cc5F)cc4)cc3)cc2)c(F)c1)C(=O)N=C(N)N [compound 13] | 6.70 | 7.40 |  |  | 74 | 1 | 56 |  |  |  |  |  |  |
| O=C(O)CN(CCN(CC(=O)O)CC(=O)NCCOCCOCCNS(=O)(=O)c1ccc(O[C@H]2c3ccccc3C[C@@H]2N2CCCCC2)cc1)CC(=O)NCCOCCOCCNS(=O)(=O)c1ccc(O[C@H]2c3ccccc3C[C@@H]2N2CCCCC2)cc1 (racemic) [compound 48] |  |  | 28.2 | 79.4 | 68 | 1 | 55 |  |  |  |  |  |  |
| C/C(=C\c1cc(F)c(Oc2ccc(S(=O)(=O)NCCOCCOCCOCCNC(=O)N(C)CCCCN(C)C(=O)NCCOCCOCCOCCNS(=O)(=O)c3ccc(Oc4c(F)cc(/C=C(\C)C(=O)N=C(N)N)cc4F)cc3)cc2)c(F)c1)C(=O)N=C(N)N [compound 30] | 7.80 | 8.40 |  |  | 100 | 1 | 104 |  |  |  |  |  |  |
| O=C(O)CN(CCN(CC(=O)O)CC(=O)NCCOCCOCCNS(=O)(=O)c1ccc(O[C@H]2c3ccccc3C[C@@H]2N2CCCCC2)cc1)CC(=O)NCCOCCOCCNS(=O)(=O)c1ccc(O[C@H]2c3ccccc3C[C@@H]2N2CCCCC2)cc1 [compound 65] |  | 8.00 | 1.41 |  | 93 | 1 | 85 |  |  |  |  |  |  |
| O=C(CCOCCOCCOCCOCCOCCC(=O)NCCOCCOCCNS(=O)(=O)c1ccc(OC2c3ccccc3CC2N2CCCCC2)cc1)NCCOCCOCCNS(=O)(=O)c1ccc(OC2c3ccccc3CC2N2CCCCC2)cc1 (racemic) [compound 54] | 7.30 | 7.50 |  |  | 75 | 1 | 72 |  |  |  |  |  |  |
| N=C(N)Nc1nc(-c2cccc(N3CCN(CCOCCOCCOCCNC(=O)CCOCCOCCOCCOCCOCCC(=O)NCCOCCOCCOCCN4CCN(c5cccc(-c6nc(NC(=N)N)nc7ccc(Cl)cc67)c5)CC4)CC3)c2)c2cc(Cl)ccc2n1 [compound 23] | 6.87 | 8.55 |  |  | 73 | 1 | 95 |  |  |  |  |  |  |

Further lines, with some results ahead:

| Prompt Rat NHE3 pIC50 (Rat NHE3) | Prompt Human NHE3 pIC50 (Human NHE3) | IC50 (Rat NHE3) [nM] | IC50 (Human NHE3; read-out: Prompt Human NHE3 pIC50 (converted)) [nM] | Structure (SMILES) | Urine Na % of control ([1]; dose 10 mg/kg) [%] | Fecal Form Score average ([2]; dose 10 mg/kg) | Urine P % of control ([3]; dose 10 mg/kg) [%] | Urine Na % of control ([1]; dose 3 mg/kg) [%] | Fecal Form Score average ([2]; dose 3 mg/kg) | Urine P % of control ([3]; dose 3 mg/kg) [%] | Urine Na % of control ([1]; dose 1 mg/kg) [%] | Fecal Form Score average ([2]; dose 1 mg/kg) | Urine P % of control ([3]; dose 1 mg/kg) [%] |
| --- | --- | --- | --- | --- | --- | --- | --- | --- | --- | --- | --- | --- | --- |
| 6.00 | 6.50 |  |  | CN1Cc2c(Cl)cc(Cl)cc2[C@H](c2cccc(S(=O)(=O)NCCOCCOCCNC(=O)CC(O)(CC(=O)NCCOCCOCCNS(=O)(=O)c3cccc([C@@H]4CN(C)Cc5c(Cl)cc(Cl)cc54)c3)C(=O)NCCOCCOCCNS(=O)(=O)c3cccc([C@@H]4CN(C)Cc5c(Cl)cc(Cl)cc54)c3)c2)C1 [compound 78] | 53 | 2 | 39 |  |  |  |  |  |  |
| 7.80 | 7.40 |  |  | CN1Cc2c(Cl)cc(Cl)cc2[C@H](c2cccc(S(=O)(=O)NCCOCCOCCN(C)C(=O)CCC(N)(CCC(=O)N(C)CCOCCOCCNS(=O)(=O)c3cccc([C@@H]4CN(C)Cc5c(Cl)cc(Cl)cc54)c3)CCC(=O)N(C)CCOCCOCCNS(=O)(=O)c3cccc([C@@H]4CN(C)Cc5c(Cl)cc(Cl)cc54)c3)c2)C1 [compound 175] |  |  |  | 102 | 1 | 48 |  |  |  |
| 7.00 | 7.90 |  |  | CN1Cc2c(Cl)cc(Cl)cc2[C@H](c2cccc(S(=O)(=O)N(C)CCOCCOCCNC(=O)NCCCN(CCCNC(=O)NCCOCCOCCN(C)S(=O)(=O)c3cccc([C@@H]4CN(C)Cc5c(Cl)cc(Cl)cc54)c3)CCCNC(=O)NCCOCCOCCN(C)S(=O)(=O)c3cccc([C@@H]4CN(C)Cc5c(Cl)cc(Cl)cc54)c3)c2)C1 [compound 106] | 20 | 4 | 64 | 76 | 2 | 39 | 98 | 1 | 124 |
| 7.53 | 8.13 |  |  | CN1Cc2c(Cl)cc(Cl)cc2[C@H](c2cccc(S(=O)(=O)NCCOCCOCCNC(=O)CCC(CCC(=O)NCCOCCOCCNS(=O)(=O)c3cccc([C@@H]4CN(C)Cc5c(Cl)cc(Cl)cc54)c3)(CCC(=O)NCCOCCOCCNS(=O)(=O)c3cccc([C@@H]4CN(C)Cc5c(Cl)cc(Cl)cc54)c3)NC(=O)NCC(=O)O)c2)C1 [compound 164] |  |  |  | 18 | 3 | 63 |  |  |  |
| 7.70 | 7.90 |  |  | CN1Cc2c(Cl)cc(Cl)cc2[C@H](c2cccc(S(=O)(=O)NCCOCCOCCNC(=O)NCCCC(CCCNC(=O)NCCOCCOCCNS(=O)(=O)c3cccc([C@@H]4CN(C)Cc5c(Cl)cc(Cl)cc54)c3)(CCCNC(=O)NCCOCCOCCNS(=O)(=O)c3cccc([C@@H]4CN(C)Cc5c(Cl)cc(Cl)cc54)c3)NC(=O)CCC(=O)O)c2)C1 [compound 155] |  |  |  | 40 | 2 | 44 |  |  |  |
| 8.60 | 8.00 |  |  | CN(C)[C@H]1Cc2c(Cl)cc(Cl)cc2[C@@H]1Oc1ccc(S(=O)(=O)NCCOCCOCCNC(=O)[C@H](O)[C@@H](O)C(=O)NCCOCCOCCNS(=O)(=O)c2ccc(O[C@H]3c4cc(Cl)cc(Cl)c4C[C@@H]3N(C)C)cc2)cc1 [compound 150] | 12 | 1 | 159 | 73 | 1 | 74 |  |  |  |
